Reference: patent publication US9376470B2, “Polypeptide having angiogenesis-inducing activity and antibacterial activity, and use thereof for medical purposes” (FunPep Inc., priority 2008, dated 2016)
In brackets after ≈: the same amount, converted by molar mass. Peptide text beside a SMILES is read from it.

What was measured:
[1] = test system: Pseudomonas aeruginosa ATCC 27853; test: microbe, parasite or virus in culture; type: cell-based; conditions: 37° C., 20 hours; for MIC: Pseudomonas aeruginosa, ATCC27853
Protocol: (§1) ATP (%) of the antibacterial activity was measured in the same manner as mentioned above, and the “minimum inhibitory concentration (MIC)” was measured as follows. MIC is the lowest concentration of an agent that may inhibit the growth of a bacterium. MIC is used as a parameter for the efficacy of an antibacterial agent, for the strength of bacterial sensitivity, or the like. The bacteria can grow (proliferate) when the concentration is not higher than MIC, and cannot grow when the concentration is higher than MIC. […] (CLSI), but, in this Example, its measurement was carried out by a broth microdilution method in accordance with “M100-S17/M7-A7” (Performance Standards for Antimicrobial Susceptibility Testing; Seventeenth Informational Supplement, Vol. 27 No. 1) published by CLSI on January, 2007. That is, sensitivity test of agents was carried out using a microtiter plate or test tubes. The bacteria were cultured in the liquid media for 4 to 6 hours, and thereafter absorbances at A600 were measured. Bacterial suspensions were diluted with Mueller-Hinton broth (MHB) according to McFarland #0.5. Each strain was added so as to attain about 10^5 CFU/ml (final concentration). Each peptide was prepared to an optional concentration, and the solutions were serially diluted from the concentration. The polypeptide at each concentration stage was added to a microplate or test tubes, and the bacterial suspension was added thereto. […] The plate was incubated at 37° C. for 20 hours, the lowest concentration where bacterial growth was inhibited was regarded as the minimum inhibitory concentration. With respect to each strain, Escherichia coli: ATCC 25922 (Escherichia coli ATCC 25922), Pseudomonas aeruginosa: ATCC 27853 (Pseudomonas aeruginosa ATCC 27853), Staphylococcus aureus: ATCC29213 (Staphylococcus aureus ATCC29213), Klebsiella pneumoniae: JCM 1662 (Klebsiella pneumoniae JCM 1662), enterobacteria (1): JCM 1232 (Enterobacter cloacae JCM 1232), enterobacteria (2): JCM 1235 (Enterobacter aerogenes JCM 1235), and Staphylococcus epidermidis: JCM 2414 (Staphylococcus epidermidis JCM 2414), were used. […] As the concentrations of the agents in ATP assay, the concentrations as described in the Tables were used.

[2] = test system: Staphylococcus epidermidis JCM 2414; test: microbe, parasite or virus in culture; type: cell-based; conditions: Staphylococcus epidermidis, JCM2414; 37° C., 20 hours
Protocol: as §1

[3] = test system: Staphylococcus aureus ATCC29213; test: microbe, parasite or virus in culture; type: cell-based; conditions: 37° C., 20 hours
Protocol: as §1

[4] = test system: human vascular endothelial cells and fibroblast cells (co-culture); test: Lumen formation with angiogenesis kit KZ-1000 (section 7); type: cell-based; conditions: for ability to form lumina: 0.5, 2.5 and 10 μg/mL; for The Area of Lumina (relative value, negative control as 100) / The Length of Lumina (relative value, negative control as 100): day 11
Protocol: Using an angiogenesis kit available from KURABO […] LTD. (Product No.: KZ-1000), lumen formation by the polypeptides was evaluated. Vascular endothelial growth factor A (VEGF-A) as a positive control, and polypeptide-free, unstimulated group as a negative control, were used.
Using a special medium for angiogenesis which was attached to the kit, each polypeptide was prepared such that the concentration thereof was respectively 0.5, 2.5 and 10 μg/mL. To a 24-well plate in which cells were plated (the cells were those obtained by co-culturing human vascular endothelial cells and fibroblast cells at an optimum concentration) which was attached to the kit, the special medium for angiogenesis containing each polypeptide was added, and the cells were cultured at 37° C. under 5% CO2. The medium was replaced with a medium containing the same additive on day 4, day 7 and day 9 of culture. On day 11 from the beginning of the culture, staining was performed using a kit for staining lumina (for CD31 antibody staining) according to the following procedure.
The media were removed, and washing was performed with Dulbecco's phosphate buffered saline (PBS(−)). Thereafter, ice-cooled 70% ethanol was added to the plate, and the cells were fixed. Each well was washed with a blocking solution (Dulbecco's phosphate buffered saline (PBS(−)) containing 1% BSA). To each well, 0.5 mL of the primary antibody for CD31 staining (mouse anti-human CD31 antibody) 4000-fold diluted with the blocking solution was added, and then the plate was incubated for 60 minutes at 37° C. After the completion of the incubation, each well was washed totally 3 times with 1 mL of the blocking solution. Then, 0.5 mL of the secondary antibody solution (goat anti-mouse IgG/alkaline phosphatase conjugate) 500-fold diluted with the blocking solution was added to each well. The plate was incubated for 60 minutes at 37° C., and thereafter each well was washed 3 times with 1 mL of distilled water. During that period, 2 tablets of BCIP/NBT were dissolved into distilled water, and the obtained solution was filtered through a filter having a pore size of […] to prepare a substrate solution. To each well, 0.5 mL of the prepared BCIP/NBT substrate solution was added, and the plate was incubated at 37° C. until the lumina turned to deep purple (typically for 5-10 minutes). After the completion of the incubation, each well was washed 3 times with 1 mL of distilled water. After washing, the washing solution was removed by aspiration, and the plate was left to stand and dry naturally. After drying, photographs of each well were taken under a microscope.
Each of the obtained images was quantified using an angiogenesis quantification software. The area and length of formed lumina observed in each visual field were measured on the basis of the scale of an angiogenesis quantification software available from KURABO […] LTD. (angiogenesis quantification software Ver 1.0), and evaluated on the basis of the ratio of the area or length of polypeptide-containing groups relative to the area or length of the negative control group.

[5] = type: in vitro ADME; conditions: human serum, 37° C.
Protocol: Then, the stability of five polypeptides SR-1 to 5 in serum was evaluated.
In human serum (purchased from KAC Co., Ltd.), or in rat serum obtained by collecting blood from a rat, then leaving the collected blood to stand at room temperature followed by centrifugation, each of the peptides was dissolved so as to attain a final concentration of 500 μg/mL, and the obtained solutions were left to stand at 37° C. After leaving to stand for 10 min or 30 min or 60 min, these solutions were subjected to HPLC chromatogram analysis to detect peaks of the decomposition products, and calculate the ratio of the concentration of the peptides which remained in the solutions relative to the starting concentration. In addition, the half-lives of the peptides in serum were also calculated.
HPLC chromatogram analysis conditions are as follows.

Crl:CD (SD) rats = test: Ability to form granulation tissue in paper disc model; type: in vivo, rat; conditions: 10 μg/disc (250 μg/mL×40 μl/disc), subcutaneous paper disc, eight days later
Text: Then, the ability to form granulation tissue of five polypeptides SR-1 to 5 in vivo was studied. […] The prepared paper discs were embedded subcutaneously into the back of Crl:CD (SD) rats (male, 9-week old, obtained from Charles River Laboratories Japan, Inc.). Eight days later, the paper discs were taken out, and the granulation tissues around the paper discs were collected to determine their wet weight.

SMILES | MIC [1] [µg/mL] | MIC [2] [µg/mL] | MIC [3] [µg/mL] | ability to form lumina [4] | The Area of Lumina (relative value, negative control as 100) ([4]; polypeptide 0.5 μg/mL) | The Length of Lumina (relative value, negative control as 100) ([4]; polypeptide 0.5 μg/mL) | The Area of Lumina (relative value, negative control as 100) ([4]; polypeptide 10 μg/mL) | The Length of Lumina (relative value, negative control as 100) ([4]; polypeptide 10 μg/mL) | half-life [5] [min] | granulation tissue weight (Crl:CD (SD) rats) | MIC Pseudomonas aeruginosa [1]
C[C@@H](O)[C@H]1C(=O)N2C(C(=O)O)=C(S[C@@H]3CN[C@H](C(=O)N(C)C)C3)[C@H](C)[C@H]12 [MEPM, meropenem, reference compound] | 0.25 to 1 (≈ 0.652 to 2.61 µM) | 0.125 (≈ 0.326 µM) | 0.03 to 0.12 (≈ 0.0782 to 0.313 µM) | – | – | – | – | – | – | – | –
Cc1onc(-c2ccccc2)c1C(=O)N[C@@H]1C(=O)N2[C@@H]1SC(C)(C)[C@@H]2C(=O)O [OX, oxacillin, reference compound] | – | 0.12 to 0.5 (≈ 0.299 to 1.25 µM) | 0.12 to 0.5 (≈ 0.299 to 1.25 µM) | – | – | – | – | – | – | – | –
CC(C)C[C@H](NC(=O)[C@H](CCCCN)NC(=O)[C@H](CCCNC(=N)N)NC(=O)[C@H](CCCCN)NC(=O)[C@H](CC(C)C)NC(=O)[C@H](CCCNC(=N)N)NC(=O)[C@H](CCCCN)NC(=O)[C@H](CCCNC(=N)N)NC(=O)[C@H](CC(C)C)NC(=O)[C@H](CCCNC(=N)N)NC(=O)[C@H](CCCNC(=N)N)NC(=O)[C@H](CCCCN)NC(=O)[C@H](CC(C)C)NC(=O)[C@H](CCCNC(=N)N)NC(=O)[C@H](Cc1c[nH]cn1)NC(=O)[C@H](CC(C)C)NC(=O)[C@H](Cc1ccccc1)NC(=O)[C@H](CCCNC(=N)N)NC(=O)[C@H](CC(C)C)NC(=O)[C@@H](N)CCC(=O)O)C(=O)N[C@@H](CCCNC(=N)N)C(N)=O [SR-2] (H-ELRFLHRLKRRLRKRLKRKLR-NH2; N-terminus assumed) | – | – | – | high ability to form lumina | 110.7 | 108.9 | 138.0 | 129.9 | 12 | – | –
CSCC[C@H](NC(=O)[C@H](CCCNC(=N)N)NC(=O)[C@H](CCCCN)NC(=O)[C@H](CC(C)C)NC(=O)[C@H](CCCNC(=N)N)NC(=O)[C@H](Cc1c[nH]cn1)NC(=O)[C@H](CC(C)C)NC(=O)[C@H](Cc1ccccc1)NC(=O)[C@H](CCCNC(=N)N)NC(=O)[C@H](CC(C)C)NC(=O)[C@@H](N)CCC(=O)O)C(=O)N[C@@H](CCCNC(=N)N)C(=O)N[C@@H](CCCCN)C(=O)N[C@@H](CCCNC(=N)N)C(=O)N[C@@H](CC(C)C)C(=O)N[C@@H](CCCCN)C(=O)N[C@@H](CCCNC(=N)N)C(=O)N[C@@H](CCCCN)C(=O)N[C@@H](CC(C)C)C(=O)N[C@@H](CCCNC(=N)N)C(N)=O [SR-3] (H-ELRFLHRLKRMRKRLKRKLR-NH2; N-terminus assumed) | – | – | – | high ability to form lumina | 100.8 | 101.9 | 118.0 | 122.6 | 15 | largest increase in the granulation tissue weight | –
CC[C@H](C)[C@H](NC(=O)[C@H](CC(C)C)NC(=O)[C@@H](N)CCCCN)C(=O)N[C@@H](Cc1ccccc1)C(=O)N[C@@H](CC(C)C)C(=O)N[C@@H](Cc1c[nH]cn1)C(=O)N[C@@H](CCCNC(=N)N)C(=O)N[C@@H](CC(C)C)C(=O)N[C@@H](CCCCN)C(=O)N[C@@H](CCCNC(=N)N)C(=O)N[C@@H](CCSC)C(=O)N[C@@H](CCCNC(=N)N)C(=O)N[C@@H](CCCCN)C(=O)N[C@@H](CCCNC(=N)N)C(=O)N[C@@H](CC(C)C)C(=O)N[C@@H](CCCCN)C(=O)N[C@@H](CCCNC(=N)N)C(=O)N[C@@H](CCCCN)C(=O)N[C@@H](CC(C)C)C(=O)N[C@@H](CCCNC(=N)N)C(N)=O [SR-4] (H-KLIFLHRLKRMRKRLKRKLR-NH2; N-terminus assumed) | – | – | – | – | 90.5 | 97.0 | 96.2 | 96.4 | 16 | – | –
CSCC[C@H](NC(=O)[C@H](CCCNC(=N)N)NC(=O)[C@@H](N)CCCCN)C(=O)N[C@@H](CCCNC(=N)N)C(=O)N[C@@H](CCCCN)C(=O)N[C@@H](CCCNC(=N)N)C(=O)N[C@@H](CC(C)C)C(=O)N[C@@H](CCCCN)C(=O)N[C@@H](CCCNC(=N)N)C(=O)N[C@@H](CCCCN)C(=O)N[C@@H](CC(C)C)C(=O)N[C@@H](CCCNC(=N)N)C(=O)N[C@@H](CC(C)C)C(=O)N[C@@H](Cc1c[nH]c2ccccc12)C(=O)N[C@@H](Cc1c[nH]cn1)C(=O)N[C@@H](CCCNC(=N)N)C(=O)N[C@@H](CCCCN)C(=O)N[C@@H](CCCNC(=N)N)C(=O)N[C@@H](Cc1ccc(O)cc1)C(=O)N[C@@H](CCCCN)C(=O)O [SR-5] (H-KRMRKRLKRKLRLWHRKRYK-OH; N-terminus assumed) | – | – | – | – | 103.4 | 106.2 | 107.7 | 106.8 | 21 | – | 128≦ μg/mL
NC[C@H]1O[C@H](O[C@H]2[C@H](O)[C@@H](O[C@H]3O[C@H](CO)[C@@H](O)[C@H](N)[C@H]3O)[C@H](N)C[C@@H]2N)[C@H](N)C[C@@H]1O [TOB, tobramycin, reference compound] | 0.25 to 1 (≈ 0.535 to 2.14 µM) | 1 (≈ 2.14 µM) | 0.12 to 1 (≈ 0.257 to 2.14 µM) | – | – | – | – | – | – | – | –
